Type in all cases: cell-based
Experiment [1] addresses Glucagon receptor (Homo sapiens) (UniProt P47871). Description: Agonist activity at human GCGR expressed in HEK293 cells after 5 hrs by luciferase reporter gene assay.
For a further experiment, the system named is HEK293. Description: Selectivity ratio of EC50 for human GLP1R expressed in HEK293 cells to EC50 for human GLP2R expressed in HEK293.
The target of experiment [2] is T1, Glucagon-like peptide 2 receptor (Homo sapiens) (UniProt O95838).
T1 sequence (whole entry): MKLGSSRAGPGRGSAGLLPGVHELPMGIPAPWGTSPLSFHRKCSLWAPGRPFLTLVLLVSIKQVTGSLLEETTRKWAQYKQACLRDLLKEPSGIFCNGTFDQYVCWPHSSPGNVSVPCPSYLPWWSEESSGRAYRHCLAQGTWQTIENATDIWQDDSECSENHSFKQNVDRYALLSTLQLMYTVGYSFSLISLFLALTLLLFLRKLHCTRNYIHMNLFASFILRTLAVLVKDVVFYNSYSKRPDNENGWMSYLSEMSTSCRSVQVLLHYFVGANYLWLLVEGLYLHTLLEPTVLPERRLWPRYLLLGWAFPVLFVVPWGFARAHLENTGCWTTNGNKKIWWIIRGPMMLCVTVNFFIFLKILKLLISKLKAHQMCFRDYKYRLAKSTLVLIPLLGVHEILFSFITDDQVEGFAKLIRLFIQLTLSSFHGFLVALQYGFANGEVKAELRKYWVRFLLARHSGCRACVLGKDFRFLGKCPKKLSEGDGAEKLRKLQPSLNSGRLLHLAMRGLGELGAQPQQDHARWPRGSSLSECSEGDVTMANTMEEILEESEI
In words: Potency index, ratio of compound EC50 to compound 2 EC50 for human GLP2R expressed in HEK293 cells.

Experiment [3] has as its target Glucagon-like peptide 1 receptor (Homo sapiens, UniProt P43220). Description: Agonist activity at human GLP1R expressed in HEK293 cells after 5 hrs by luciferase reporter gene assay. Background: A reporter such as luciferase makes a cellular process visible.
Experiment [4] addresses T2, Glucagon-like peptide 2 receptor (Homo sapiens, UniProt O95838).
T2 sequence (O95838 whole entry): T1 sequence (whole entry)
Description: Agonist activity at human GLP2R expressed in HEK293 cells after 5 hrs by luciferase reporter gene assay.

Activity calls are given as the source filed them. No cut-off for these calls is given here. Non-standard residues stand in square brackets, D forms with d. Residues, ends and D or L forms follow the SMILES beside them. Nle = CCCC[C@H](N)C(=O)O Where only a bound is given, the exact number is not on record here.

As usually defined, the EC50 is the concentration needed to bring the measured effect to its halfway point.

Glucagon-like peptide 1 receptor, sequence (P43220 whole entry): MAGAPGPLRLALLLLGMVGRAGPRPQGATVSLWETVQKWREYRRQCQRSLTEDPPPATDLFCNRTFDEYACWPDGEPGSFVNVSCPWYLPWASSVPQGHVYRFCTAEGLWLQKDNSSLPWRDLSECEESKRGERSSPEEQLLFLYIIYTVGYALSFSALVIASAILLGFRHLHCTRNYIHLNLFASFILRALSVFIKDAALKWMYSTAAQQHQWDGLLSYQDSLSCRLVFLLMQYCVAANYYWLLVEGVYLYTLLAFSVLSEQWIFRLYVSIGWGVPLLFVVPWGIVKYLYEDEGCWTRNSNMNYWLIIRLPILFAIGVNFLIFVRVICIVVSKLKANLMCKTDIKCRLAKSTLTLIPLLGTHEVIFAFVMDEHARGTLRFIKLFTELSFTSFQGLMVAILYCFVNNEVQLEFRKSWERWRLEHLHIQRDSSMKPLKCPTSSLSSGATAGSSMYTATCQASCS
Glucagon receptor (Homo sapiens), sequence (P47871 whole entry): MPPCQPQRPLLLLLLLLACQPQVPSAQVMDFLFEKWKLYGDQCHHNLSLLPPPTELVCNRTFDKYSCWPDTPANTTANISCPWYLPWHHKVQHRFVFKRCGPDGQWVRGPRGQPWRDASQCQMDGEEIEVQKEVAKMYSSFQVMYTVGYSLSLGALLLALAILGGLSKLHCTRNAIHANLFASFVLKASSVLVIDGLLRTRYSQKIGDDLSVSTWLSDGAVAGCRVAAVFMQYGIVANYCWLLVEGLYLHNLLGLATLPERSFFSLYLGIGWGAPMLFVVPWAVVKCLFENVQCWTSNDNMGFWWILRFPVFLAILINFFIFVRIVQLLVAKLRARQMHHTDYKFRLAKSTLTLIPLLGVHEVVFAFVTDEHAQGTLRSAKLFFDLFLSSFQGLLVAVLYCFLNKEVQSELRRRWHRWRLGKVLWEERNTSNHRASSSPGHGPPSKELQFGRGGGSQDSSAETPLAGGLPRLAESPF

Consider `CCCC[C@H](NC(=O)[C@H](CCC(=O)O)NC(=O)[C@H](CC(=O)O)NC(=O)[C@H](CO)NC(=O)[C@H](Cc1ccccc1)NC(=O)[C@H](CO)NC(=O)[C@@H](C)NC(=O)[C@H](CC(=O)O)NC(=O)CNC(=O)[C@@H](N)Cc1cnc[nH]1)C(=O)N[C@@H](CC(N)=O)C(=O)N[C@H](C(=O)N[C@H](C(=O)N[C@@H](CC(C)C)C(=O)N[C@@H](CC(=O)O)C(=O)N[C@@H](CC(N)=O)C(=O)N[C@@H](CC(C)C)C(=O)N[C@@H](C)C(=O)N[C@@H](C)C(=O)N[C@@H](CCCNC(=N)N)C(=O)N[C@@H](CC(=O)O)C(=O)N[C@@H](Cc1ccccc1)C(=O)N[C@H](C(=O)N[C@@H](CC(N)=O)C(=O)N[C@@H](Cc1c[nH]c2ccccc12)C(=O)N[C@@H](CC(C)C)C(=O)N[C@H](C(=O)N[C@@H](CCC(N)=O)C(=O)N[C@H](C(=O)N[C@@H](CCCCN)C(N)=O)[C@@H](C)O)[C@@H](C)CC)[C@@H](C)CC)[C@@H](C)CC)[C@@H](C)O` (H-HGD[dA]SFSDE[Nle]NTILDNLAARDFINWLIQTK-NH2), for which the result in experiment [1] was inactive. For the same compound, the Ratio EC50 in the experiment with HEK293 is more than 5000; in experiment [2] it was 0.91. The half-maximal effective concentration (EC50) in experiment [3] is more than 1000 nM; in experiment [4], 0.2 nM.
Taken in the same sequence, the figures for `CCCCC(NC(=O)[C@@H](CCC(=O)O)NC(=O)[C@H](CC(=O)O)NC(=O)[C@H](CO)NC(=O)[C@H](Cc1ccccc1)NC(=O)[C@H](CO)NC(=O)CNC(=O)[C@H](CC(=O)O)NC(=O)CNC(=O)[C@@H](N)Cc1cnc[nH]1)C(=O)N[C@@H](CC(N)=O)C(=O)N[C@H](C(=O)N[C@H](C(=O)N[C@@H](CC(C)C)C(=O)N[C@@H](CC(=O)O)C(=O)N[C@@H](CC(N)=O)C(=O)N[C@@H](CC(C)C)C(=O)N[C@@H](C)C(=O)N[C@@H](C)C(=O)N[C@@H](CCCNC(=N)N)C(=O)N[C@@H](CC(=O)O)C(=O)N[C@@H](Cc1ccccc1)C(=O)N[C@H](C(=O)N[C@@H](CC(N)=O)C(=O)N[C@@H](Cc1c[nH]c2ccccc12)C(=O)N[C@@H](CC(C)C)C(=O)N[C@H](C(=O)N[C@@H](CCC(N)=O)C(=O)N[C@H](C(=O)N[C@@H](CCCCN)C(N)=O)[C@@H](C)O)[C@@H](C)CC)[C@@H](C)CC)[C@@H](C)CC)[C@@H](C)O` (stereo not given in full) were “inactive”, more than 140, 32, more than 1000 nM and 7.1 nM.
Taken in the same sequence, the figures for `CCCC[C@@H](NC(=O)[C@H](CCC(=O)O)NC(=O)[C@H](CC(=O)O)NC(=O)[C@H](CO)NC(=O)[C@H](Cc1ccccc1)NC(=O)[C@H](CO)NC(=O)CNC(=O)[C@H](CC(=O)O)NC(=O)CNC(=O)[C@@H](N)Cc1cnc[nH]1)C(=O)N[C@@H](CC(N)=O)C(=O)N[C@H](C(=O)N[C@H](C(=O)N[C@@H](CC(C)C)C(=O)N[C@@H](CC(=O)O)C(=O)N[C@@H](CC(N)=O)C(=O)N[C@@H](CC(C)C)C(=O)N[C@@H](C)C(=O)N[C@@H](C)C(=O)N[C@@H](CCCNC(=N)N)C(=O)N[C@@H](CC(=O)O)C(=O)N[C@@H](Cc1ccccc1)C(=O)N[C@H](C(=O)N[C@@H](CC(N)=O)C(=O)N[C@@H](Cc1c[nH]c2ccccc12)C(=O)N[C@@H](CC(C)C)C(=O)N[C@H](C(=O)N[C@@H](CCC(N)=O)C(=O)N[C@H](C(=O)N[C@@H](CCCCN)C(N)=O)[C@@H](C)O)[C@@H](C)CC)[C@@H](C)CC)[C@@H](C)CC)[C@@H](C)O` were “inactive”, more than 4300, 1, more than 1000 nM and 0.23 nM.
As to `CCCCC(NC(=O)[C@H](CCC(=O)O)NC(=O)[C@H](CC(=O)O)NC(=O)[C@H](CO)NC(=O)[C@H](Cc1ccccc1)NC(=O)[C@H](CO)NC(=O)CNC(=O)[C@H](CC(=O)O)NC(=O)CNC(=O)[C@@H](N)Cc1cnc[nH]1)C(=O)N[C@@H](CC(N)=O)C(=O)N[C@H](C(=O)N[C@H](C(=O)N[C@@H](CC(C)C)C(=O)N[C@@H](CC(=O)O)C(=O)N[C@@H](CC(N)=O)C(=O)N[C@H](CC(C)C)C(=O)N[C@@H](C)C(=O)N[C@@H](C)C(=O)N[C@@H](CCCNC(=N)N)C(=O)N[C@@H](CC(=O)O)C(=O)N[C@@H](Cc1ccccc1)C(=O)N[C@H](C(=O)N[C@@H](CC(N)=O)C(=O)N[C@@H](Cc1c[nH]c2ccccc12)C(=O)N[C@@H](CC(C)C)C(=O)N[C@H](C(=O)N[C@@H](CCC(N)=O)C(=O)N[C@H](C(=O)N[C@@H](CCCCN)C(N)=O)[C@@H](C)O)[C@@H](C)CC)[C@@H](C)CC)[C@@H](C)CC)[C@@H](C)O` (stereo not given in full), the outcome in experiment [1] was inactive. Moreover, the values for the Ratio EC50 (in the experiment with HEK293; in experiment [2]) were more than 380 and 12, respectively. Moreover, the EC50 in experiment [3] is more than 1000 nM; in experiment [4], 2.6 nM.
Taken in the same sequence, the figures for `CCCCC(NC(=O)[C@H](CCC(=O)O)NC(=O)[C@H](CC(=O)O)NC(=O)[C@H](CO)NC(=O)[C@H](Cc1ccccc1)NC(=O)[C@H](CO)NC(=O)CNC(=O)[C@H](CC(=O)O)NC(=O)CNC(=O)[C@@H](N)Cc1cnc[nH]1)C(=O)N[C@@H](CC(N)=O)C(=O)N[C@H](C(=O)N[C@H](C(=O)N[C@@H](CC(C)C)C(=O)N[C@@H](CC(=O)O)C(=O)N[C@@H](CC(N)=O)C(=O)N[C@@H](CC(C)C)C(=O)N[C@@H](C)C(=O)N[C@H](C)C(=O)N[C@@H](CCCNC(=N)N)C(=O)N[C@@H](CC(=O)O)C(=O)N[C@@H](Cc1ccccc1)C(=O)N[C@H](C(=O)N[C@@H](CC(N)=O)C(=O)N[C@@H](Cc1c[nH]c2ccccc12)C(=O)N[C@@H](CC(C)C)C(=O)N[C@H](C(=O)N[C@@H](CCC(N)=O)C(=O)N[C@H](C(=O)N[C@@H](CCCCN)C(N)=O)[C@@H](C)O)[C@@H](C)CC)[C@@H](C)CC)[C@@H](C)CC)[C@@H](C)O` (stereo not given in full) were “inactive”, more than 71, 64, more than 1000 nM and 14 nM.
Take `CCCCC(NC(=O)[C@H](CCC(=O)O)NC(=O)[C@H](CC(=O)O)NC(=O)[C@H](CO)NC(=O)[C@H](Cc1ccccc1)NC(=O)[C@H](CO)NC(=O)CNC(=O)[C@H](CC(=O)O)NC(=O)CNC(=O)[C@@H](N)Cc1cnc[nH]1)C(=O)N[C@@H](CC(N)=O)C(=O)N[C@H](C(=O)N[C@H](C(=O)N[C@@H](CC(C)C)C(=O)N[C@@H](CC(=O)O)C(=O)N[C@@H](CC(N)=O)C(=O)N[C@@H](CC(C)C)C(=O)N[C@H](C)C(=O)N[C@@H](C)C(=O)N[C@@H](CCCNC(=N)N)C(=O)N[C@@H](CC(=O)O)C(=O)N[C@@H](Cc1ccccc1)C(=O)N[C@H](C(=O)N[C@@H](CC(N)=O)C(=O)N[C@@H](Cc1c[nH]c2ccccc12)C(=O)N[C@@H](CC(C)C)C(=O)N[C@H](C(=O)N[C@@H](CCC(N)=O)C(=O)N[C@H](C(=O)N[C@@H](CCCCN)C(N)=O)[C@@H](C)O)[C@@H](C)CC)[C@@H](C)CC)[C@@H](C)CC)[C@@H](C)O` (stereo not given in full): the result in experiment [1] was inactive. Further, the Ratio EC50 in the experiment with HEK293 is more than 220; in experiment [2], 20. Also, the EC50 in experiment [3] was more than 1000 nM; in experiment [4], 4.5 nM.
Take `CCCCC(NC(=O)[C@H](CCC(=O)O)NC(=O)[C@H](CC(=O)O)NC(=O)[C@H](CO)NC(=O)[C@H](Cc1ccccc1)NC(=O)[C@H](CO)NC(=O)CNC(=O)[C@H](CC(=O)O)NC(=O)CNC(=O)[C@@H](N)Cc1cnc[nH]1)C(=O)N[C@@H](CC(N)=O)C(=O)N[C@H](C(=O)N[C@H](C(=O)N[C@@H](CC(C)C)C(=O)N[C@@H](CC(=O)O)C(=O)N[C@@H](CC(N)=O)C(=O)N[C@@H](CC(C)C)C(=O)N[C@@H](C)C(=O)N[C@@H](C)C(=O)N[C@H](CCCNC(=N)N)C(=O)N[C@@H](CC(=O)O)C(=O)N[C@@H](Cc1ccccc1)C(=O)N[C@H](C(=O)N[C@@H](CC(N)=O)C(=O)N[C@@H](Cc1c[nH]c2ccccc12)C(=O)N[C@@H](CC(C)C)C(=O)N[C@H](C(=O)N[C@@H](CCC(N)=O)C(=O)N[C@H](C(=O)N[C@@H](CCCCN)C(N)=O)[C@@H](C)O)[C@@H](C)CC)[C@@H](C)CC)[C@@H](C)CC)[C@@H](C)O` (stereo not given in full): the result in experiment [1] was inactive. The Ratio EC50 with HEK293 was more than 450; in experiment [2], 10. Moreover, the results for the EC50 in experiment [3] and in experiment [4] were more than 1000 nM and 2.2 nM, respectively.
With `CCCCC(NC(=O)[C@H](CCC(=O)O)NC(=O)[C@H](CC(=O)O)NC(=O)[C@H](CO)NC(=O)[C@H](Cc1ccccc1)NC(=O)[C@@H](CO)NC(=O)CNC(=O)[C@H](CC(=O)O)NC(=O)CNC(=O)[C@@H](N)Cc1cnc[nH]1)C(=O)N[C@@H](CC(N)=O)C(=O)N[C@H](C(=O)N[C@H](C(=O)N[C@@H](CC(C)C)C(=O)N[C@@H](CC(=O)O)C(=O)N[C@@H](CC(N)=O)C(=O)N[C@@H](CC(C)C)C(=O)N[C@@H](C)C(=O)N[C@@H](C)C(=O)N[C@@H](CCCNC(=N)N)C(=O)N[C@@H](CC(=O)O)C(=O)N[C@@H](Cc1ccccc1)C(=O)N[C@H](C(=O)N[C@@H](CC(N)=O)C(=O)N[C@@H](Cc1c[nH]c2ccccc12)C(=O)N[C@@H](CC(C)C)C(=O)N[C@H](C(=O)N[C@@H](CCC(N)=O)C(=O)N[C@H](C(=O)N[C@@H](CCCCN)C(N)=O)[C@@H](C)O)[C@@H](C)CC)[C@@H](C)CC)[C@@H](C)CC)[C@@H](C)O` (stereo not given in full), in experiment [1], the outcome was inactive. Besides, the Ratio EC50 in the experiment on HEK293 is more than 120; in experiment [2], 37. For the same compound, the EC50 in experiment [3] was more than 1000 nM; in experiment [4], 8.1 nM.

Source of the values: ChEMBL document CHEMBL3822442, “Synthesis and Pharmacological Characterization of Novel Glucagon-like Peptide-2 (GLP-2) Analogues with Low Systemic Clearance” (J Med Chem, 2016).
